Measured values as given in patent publication US12447137B2, “Composition for prevention, amelioration, or treatment of cancer” (EWHA UNIVERSITY—INDUSTRY COLLABORATION FOUNDATION, priority 2019, dated 2025).
Like-named read-outs stand apart in the source and are kept apart here.

Tests used:
BT549 cell line [1] = assay: Cell viability assay (WST-1); assay type: cell-based; settings: Homo sapiens
Procedure: (§1) [4-1-1] The breast cancer cell line of Experimental Method 1 was treated with 5-aminoimidazole-4-carboxamide ribonucleotide (AICAR) (which is not the compound of Production Example 6) or the compound of Production Example 6 at a concentration of 0 to 30 μM, and then cultured for 24 hours, 48 hours and 72 hours. Thereafter, the cultured cells were treated with WST-1 reagent, and then the absorbance at a wavelength of 450 nm was measured. Here, the WST-1 reagent allows the cell viability to be measured by changing the color of the culture medium depending on the level of the mitochondrial dehydrogenase present in the cell.
(§2) [4-1-2] The breast cancer cell line 4T1, BT549 or MDA-MB-231 of Experimental Method 1 was treated with each of the compound of Production Example 6 and 13 compounds, including the compounds of Production Examples 1 to 5 and 8 to 15 having a similar structure (YE-01, 02, 03, 04, 05, 08, 09, 10, 11, 12, 13, 14 and 15), at a concentration of 0 to 50 μM, and then cultured for 24 hours. Each of three types of gastric cancer cell lines, brain cancer cell lines and pancreatic cancer cell lines was treated with the compound of Production Example 6 or the compound of Production Example 8 having a similar structure at a concentration of 0 to 50 μM, and then cultured for 24 hours. Thereafter, the cultured cells were treated with WST-1 reagent according to the manufacturer's instruction, and after a certain time, the absorbance at a wavelength of 450 nm was measured. Here, the WST-1 reagent allows the cell viability to be measured by changing the color of the culture medium depending on the level of the mitochondrial dehydrogenase present in the cell.

4T1 cell line = assay: Cell viability assay (WST-1); assay type: cell-based; settings: Mus musculus
Procedure: as §1, §2

MDA-MB-231 cell line [2] = assay: Cell viability assay (WST-1); assay type: cell-based; settings: Homo sapiens, MDA-MB-231, 24 h, read-out: cancer cell viability inhibited
Procedure: as §1, §2

[3] = system: EMT protein markers α-SMA, Vimentin, ZEB-1 and Slug; assay: EMT protein marker Western blot, TGF-β1-treated MDA-MB-231 cells; assay type: cell-based, human; settings: MDA-MB-231, with TGF-β1; FIG. 7A
Procedure: The culture medium of the breast cancer cell line of Experimental Method 1 was replaced with a serum-free medium. Then, the cells were treated with 2 ng/mL of TGF-β1 and the compound of Preparation Example 6 and cultured for 20 to 24 hours. Thereafter, as described in Experimental Method 3, the expression level of the protein was measured using an antibody specific for the EMT-related protein.

p-AMPK (Thr172) [4] = assay: AMPK activation by p-AMPK (Thr172) Western blot in gastric cancer cell lines; assay type: cell-based, human; settings: 10 μM, 12 hours, compared to untreated group
Procedure: (§3) [3-2] The three breast cancer cell lines (4T1, BT549, and MDA-MB-231) of Experimental Method 1 were treated with each of the compound of Production Example 6 and 13 compounds, including the compounds of Production Examples 1 to 5 and 8 to 15 having a similar structure (YE-01, 02, 03, 04, 05, 08, 09, 10, 11, 12, 13, 14 and 15), at a concentration of 10 μM, and then cultured for 24 hours. In addition, each of two types of gastric cancer cell lines, brain cancer cell lines and pancreatic cancer cell lines was treated with the compound of Production Example 6 or the compound of Production Example 8 having a similar structure at a concentration of 10 μM and then cultured for 12 hours. Thereafter, the cells were harvested and lysed in RIPA buffer, and the protein was electrophoresed by SDS-PAGE, and then the expression level of the protein was analyzed using antibodies specific for AMPK and phospho-AMPK (Thr172). GAPDH or β-actin was used as a loading control for protein quantification.

BT549 cell line [5] = assay: Clonogenic assay; assay type: cell-based, human; settings: BT549, 10 μM; FIG. 2B
Procedure: (§4) The breast cancer cell line of Experimental Method 1 was dispensed into a 6-well plate at a density of 1 to 2×10^3 cells/well. After the cells were sufficiently attached, they were treated with the compound of Production Example 6 at a concentration of 0 to 30 μM and cultured for 10 days to 14 days. Next, the cultured cells were fixed with 4% formaldehyde and stained with 1% crystal violet, and the colonies were counted under a microscope.

MDA-MB-231 cell line [6] = assay: Clonogenic assay; assay type: cell-based, human; settings: MDA-MB-231, 10 μM; FIG. 2B
Procedure: as §4

p-AMPK (Thr172) [7] = assay: AMPK activation by p-AMPK (Thr172) Western blot in MDA-MB-231 cells; assay type: cell-based, human; settings: 24 hours
Procedure: [3-1] The breast cancer cell line of Experimental Method 1 above was treated with the compound of Production Example 6 at a concentration of 0 to 30 μM, and then cultured for 24 hours. Thereafter, the cells were harvested and lysed in RIPA buffer, and the protein was electrophoresed by SDS-PAGE, and then the expression level of the protein was analyzed using antibodies specific for AMPK and phospho-AMPK (Thr172). GAPDH or β-actin was used as a loading control for protein quantification.
as §3

AMPK = assay: Cellular thermal shift assay (CTSA) of AMPK protein, Western blot; assay type: binding, human; settings: cells treated with compound; AMPK protein alone Tm 50° C.; FIG. 1
Procedure: In order to examine whether or not the compound of Production Example 6 and 13 compounds, including the compounds of Production Examples 1 to 5 and 8 to 15 having a similar structure (YE-01, 02, 03, 04, 05, 08, 09, 10, 11, 12, 13, 14 and 15), bind to the AMP binding site of AMPK, cellular thermal shift assay (CTSA) was performed. Specifically, the cultured human breast cancer-derived cell line (BT549 or MDA-MB-231 cell line) was detached from the culture dish using trypsin. The detached cell line was diluted in PBS, and the same amount of the cells were dispensed in each tube for PCR and heated for 3 minutes at a temperature of room temperature to 65° C. After completion of the heating, protein was isolated from the cell line using liquid nitrogen, and Western blot analysis was performed to confirm the temperature at which AMPK would be denatured by heat.

[8] = system: cleaved-PARP, Bcl-2 and Cyclin D1 proteins; assay: Apoptosis marker Western blot in 4T1 cell line; assay type: cell-based, mouse; settings: FIG. 5
[9] = system: cleaved-PARP, Bcl-2 and Cyclin D1 proteins; assay: Apoptosis marker Western blot in MDA-MB-231 cell line; assay type: cell-based, human; settings: FIG. 5

`COc1ccc(OC)c(/C=C/C(=O)c2ccc(NS(=O)(=O)c3ccc(Cl)cc3)cc2)c1` [Production Example 6, (E)-4-chloro-N-(4-(3-(2,5-dimethoxyphenyl)acryloyl)phenyl)benzenesulfonamide] showed a cytotoxicity at 10 µM (BT549 cell line [1]; BT-549, 24 h, read-out: cancer cell viability inhibited) of at least 50%, a cytotoxicity at 10 µM (BT549 cell line [1]; BT-549, read-out: cell viability inhibited) of at least 50% and a cytotoxicity at 10 µM (4T1 cell line; 4T1, 24 h, read-out: cancer cell viability inhibited) of at least 50%. The cytotoxicity at 10 µM (4T1 cell line; 4T1, read-out: cell viability inhibited) was at least 50%, the cytotoxicity at 10 µM (MDA-MB-231 cell line [2]) was at least 50% and the Slug protein [3] was “decreased”. The Vimentin protein [3] was “decreased”, the ZEB-1 protein [3] was “decreased” and the α-SMA protein [3] was “decreased”. The “expression of p-AMPK” value (p-AMPK (Thr172) [4]) was “increased”, the colony formation (BT549 cell line [5]) was “significantly reduced” and the colony formation (MDA-MB-231 cell line [6]) was “significantly reduced”. The phospho-AMPK protein (p-AMPK (Thr172) [7]; MDA-MB-231, 0 to 30 μM, FIG. 5) was “increased in a concentration-dependent manner”, the p-AMPK level (p-AMPK (Thr172) [7]; MDA-MB-231, 10 μM, FIG. 3B) was “effectively increased” and the “Tm value of AMPK protein” value (AMPK) was 55 °C. For the same compound, the “level of Bcl-2 protein” value [8] was “decreased”, the “level of Cyclin D1 protein” value [8] was “decreased” and the “level of apoptosis marker cleaved-PARP protein” value [8] was “increased”. For the same compound, the “level of Bcl-2 protein” value [9] was “decreased”, the “level of Cyclin D1 protein” value [9] was “decreased” and the “level of apoptosis marker cleaved-PARP protein” value [9] was “increased”.
